Laboratory results as given in PMC12377202, “Design, synthesis, and cytotoxic evaluation of quinazoline-based derivatives as VEGER-2 inhibitors: comparative study against EGFR kinase activity, induction of apoptosis, and molecular docking study” (RSC Advances, 2025).
≈ marks a conversion by molar mass, not a printed value. Where two headings read alike, the source gives them in different places.

Columns and labels:
VEGFR-2 = VEGFR-2 (Homo sapiens, UniProt P35968); assay: In vitro VEGFR-2 inhibitory assay (ELISA kit); conditions: VEGFR-2 kinase
TNF-alpha = TNF-alpha level in HepG-2 cells; assay type: cell-based, human; conditions: control 43.48
Description: (§1) All synthesized compounds were tested at their cytotoxic concentrations in HepG-2 cells for analysis of gene expression levels of apoptotic markers caspase-3, caspase-9, TNF-α, and IL-6 proteins, and only two active compounds were tested for BAX and Bcl-2 proteins.
(§2) through Flow cytometric analysis.
(§3) Pellets were collected again and incubated with
(§4) Total RNA from vehicle-treated
(§5) (Thermo Scientific, USA).
(§6) All experiments were performed in […]

caspase-9 = assay: Caspase-9 expression level in HepG-2 cells; assay type: cell-based, human; conditions: for Caspase-9 ± SE: HepG-2, at IC50 concentrations, control 11.01
Description: as §1, §2, §3, §4, §5, §6

HepG-2 = assay: MTT anti-proliferative assay, HepG-2; assay type: cell-based, human; conditions: Homo sapiens, HepG2
EGFR = EGFR (Homo sapiens, UniProt P00533); assay: EGFR kinase inhibition assay (ELISA kit)
BAX = BAX gene expression in HepG-2 cells; assay type: cell-based, human
Description: as §1, §2, §3, §4, §5, §6

caspase-3 = assay: Caspase-3 expression level in HepG-2 cells; assay type: cell-based, human; conditions: for Caspase-3 ± SE: HepG-2, at IC50 concentrations, control 0.460
Description: as §1, §2, §3, §4, §5, §6

MCF-7 [1] = assay: MTT anti-proliferative assay, MCF-7; assay type: cell-based, human; conditions: Homo sapiens, MCF7
K-562 = assay: MTT anti-proliferative assay, K-562; assay type: cell-based, human; conditions: Homo sapiens, K562
Bcl-2 = Bcl-2 gene expression in HepG-2 cells; assay type: cell-based, human
Description: as §1, §2, §3, §4, §5, §6

IL-6R = IL-6R level in HepG-2 cells; assay type: cell-based, human; conditions: control 44.10
Description: as §1, §2, §3, §4, §5, §6

BAX/Bcl-2 = BAX/Bcl-2 ratio in HepG-2 cells; assay type: cell-based, human
Description: as §1, §2, §3, §4, §5, §6

HepG2 = conditions: cited from earlier work
MCF-7 [2] = conditions: cited from earlier work
PC3 = conditions: cited from earlier work
VEGFR-2 kinase = conditions: cited from earlier work
WI-38 = conditions: read-out: IC50 normal WI-38 cells; cited from earlier work

VEGFR-2, sequence (P35968 20-1356): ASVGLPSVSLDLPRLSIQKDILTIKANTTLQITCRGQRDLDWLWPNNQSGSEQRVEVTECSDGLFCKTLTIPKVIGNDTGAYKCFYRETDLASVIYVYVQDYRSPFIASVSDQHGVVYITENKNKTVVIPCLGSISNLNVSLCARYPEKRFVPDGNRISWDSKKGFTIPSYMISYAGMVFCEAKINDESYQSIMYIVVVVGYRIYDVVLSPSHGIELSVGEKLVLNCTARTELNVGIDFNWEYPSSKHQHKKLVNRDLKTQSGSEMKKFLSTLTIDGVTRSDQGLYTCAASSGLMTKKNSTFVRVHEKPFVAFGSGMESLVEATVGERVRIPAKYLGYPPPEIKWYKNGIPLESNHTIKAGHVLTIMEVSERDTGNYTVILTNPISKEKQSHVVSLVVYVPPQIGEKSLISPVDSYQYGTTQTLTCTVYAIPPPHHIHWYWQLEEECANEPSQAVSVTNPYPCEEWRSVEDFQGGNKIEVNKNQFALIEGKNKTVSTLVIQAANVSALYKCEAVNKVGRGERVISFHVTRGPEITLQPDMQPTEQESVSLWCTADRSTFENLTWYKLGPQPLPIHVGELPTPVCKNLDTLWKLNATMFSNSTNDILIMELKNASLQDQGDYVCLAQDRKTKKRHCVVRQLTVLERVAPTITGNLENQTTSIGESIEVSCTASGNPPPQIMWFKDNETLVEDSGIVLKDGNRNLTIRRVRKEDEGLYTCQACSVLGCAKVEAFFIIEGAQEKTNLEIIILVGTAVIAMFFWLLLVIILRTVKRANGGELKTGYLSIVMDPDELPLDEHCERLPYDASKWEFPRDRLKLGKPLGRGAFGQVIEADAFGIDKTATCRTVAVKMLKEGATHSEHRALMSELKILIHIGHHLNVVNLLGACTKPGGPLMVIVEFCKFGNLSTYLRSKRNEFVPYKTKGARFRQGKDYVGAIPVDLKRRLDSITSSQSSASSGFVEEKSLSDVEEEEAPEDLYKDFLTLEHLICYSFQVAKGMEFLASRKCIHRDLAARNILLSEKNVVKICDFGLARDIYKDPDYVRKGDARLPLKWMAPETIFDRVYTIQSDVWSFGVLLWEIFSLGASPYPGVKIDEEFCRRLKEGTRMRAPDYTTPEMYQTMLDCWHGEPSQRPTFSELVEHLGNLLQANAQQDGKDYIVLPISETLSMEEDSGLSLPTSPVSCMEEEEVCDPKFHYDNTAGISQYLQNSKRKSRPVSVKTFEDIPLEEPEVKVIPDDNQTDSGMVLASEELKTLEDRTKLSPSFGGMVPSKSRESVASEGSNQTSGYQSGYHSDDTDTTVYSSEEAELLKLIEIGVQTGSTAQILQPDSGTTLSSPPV
EGFR, sequence (P00533 25-1210): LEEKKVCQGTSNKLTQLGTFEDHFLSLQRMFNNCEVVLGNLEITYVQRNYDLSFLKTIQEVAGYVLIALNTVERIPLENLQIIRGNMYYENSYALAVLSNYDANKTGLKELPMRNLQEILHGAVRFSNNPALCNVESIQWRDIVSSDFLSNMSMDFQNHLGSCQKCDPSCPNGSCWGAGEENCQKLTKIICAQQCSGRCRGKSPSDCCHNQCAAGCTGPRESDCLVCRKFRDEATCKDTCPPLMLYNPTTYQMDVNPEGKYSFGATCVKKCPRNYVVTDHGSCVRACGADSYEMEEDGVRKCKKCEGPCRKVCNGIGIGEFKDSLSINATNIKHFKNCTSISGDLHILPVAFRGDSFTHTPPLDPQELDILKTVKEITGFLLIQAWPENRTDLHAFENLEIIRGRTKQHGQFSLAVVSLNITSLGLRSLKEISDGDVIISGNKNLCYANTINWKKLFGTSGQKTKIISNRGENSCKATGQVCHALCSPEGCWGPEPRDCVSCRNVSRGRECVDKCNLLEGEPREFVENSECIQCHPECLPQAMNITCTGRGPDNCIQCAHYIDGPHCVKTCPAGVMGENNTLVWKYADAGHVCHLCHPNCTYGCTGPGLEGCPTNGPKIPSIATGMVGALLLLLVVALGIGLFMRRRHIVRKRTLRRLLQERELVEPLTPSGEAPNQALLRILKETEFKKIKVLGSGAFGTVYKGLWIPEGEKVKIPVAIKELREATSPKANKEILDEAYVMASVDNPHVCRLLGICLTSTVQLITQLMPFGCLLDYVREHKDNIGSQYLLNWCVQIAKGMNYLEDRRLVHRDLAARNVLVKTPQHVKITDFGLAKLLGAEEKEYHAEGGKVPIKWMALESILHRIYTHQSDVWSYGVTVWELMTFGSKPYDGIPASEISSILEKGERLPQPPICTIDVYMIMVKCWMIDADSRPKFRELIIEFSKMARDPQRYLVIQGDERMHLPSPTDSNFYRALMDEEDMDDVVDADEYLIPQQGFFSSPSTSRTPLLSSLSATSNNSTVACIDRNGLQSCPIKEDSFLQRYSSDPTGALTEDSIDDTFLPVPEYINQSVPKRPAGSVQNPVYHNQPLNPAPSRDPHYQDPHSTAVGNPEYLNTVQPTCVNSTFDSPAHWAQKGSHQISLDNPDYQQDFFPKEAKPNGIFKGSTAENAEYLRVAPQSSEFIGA

SMILES: O=C(Cn1cnc2cc([N+](=O)[O-])ccc2c1=O)Nc1ccccc1 [9a, 2-(7-Nitro-4-oxoquinazolin-3(4H)-yl)-N-phenylacetamide]
- Activity % (VEGFR-2; HepG2): 14.760%
- Inhibition % (VEGFR-2; HepG2): 85.240%
- Activity % (VEGFR-2; K-562): 35.983%
- Inhibition % (VEGFR-2; K-562): 64.017%
- Activity % (VEGFR-2; MCF7): 19.964%
- Inhibition % (VEGFR-2; MCF7): 80.036%
- TNF-alpha ±SE (TNF-alpha; HepG-2, at IC50 concentrations): 23.6 ± 1.35 ng/L
- TNF-alpha ±SE (TNF-alpha; raw data, HepG2): 9.13 ng/L
- Caspase-9 ± SE (caspase-9): 30.57 ± 3.39 ng/L
- Caspase-9 ± SE (caspase-9; listed as N1): 30.57 ng/L
- caspase-9 expression level, fold increase (caspase-9; HepG-2, vs control cells): 2.77 fold
- viability at 0.195 µg/mL (HepG-2; HepG-2, 0.195 ug/ml): 45.9%
- cytotoxicity at 0.195 µg/mL (HepG-2; HepG-2, 0.195 ug/ml, read-out: Toxicity %): 54.1%
- viability at 0.391 µg/mL (HepG-2; HepG-2, 0.391 ug/ml): 29.7%
- cytotoxicity at 0.391 µg/mL (HepG-2; HepG-2, 0.391 ug/ml, read-out: Toxicity %): 70.3%
- viability at 0.781 µg/mL (HepG-2; HepG-2, 0.781 ug/ml): 21%
- cytotoxicity at 0.781 µg/mL (HepG-2; HepG-2, 0.781 ug/ml, read-out: Toxicity %): 79%
- viability at 1.563 µg/mL (HepG-2; HepG-2, 1.563 ug/ml): 12.7%
- cytotoxicity at 1.563 µg/mL (HepG-2; HepG-2, 1.563 ug/ml, read-out: Toxicity %): 87.3%
- viability at 3.125 µg/mL (HepG-2; HepG-2, 3.125 ug/ml): 9.56%
- cytotoxicity at 3.125 µg/mL (HepG-2; HepG-2, 3.125 ug/ml, read-out: Toxicity %): 90.4%
- viability at 6.25 µg/mL (HepG-2; HepG-2, 6.25 ug/ml): 6.96%
- cytotoxicity at 6.25 µg/mL (HepG-2; HepG-2, 6.25 ug/ml, read-out: Toxicity %): 93%
- viability at 12.5 µg/mL (HepG-2; HepG-2, 12.5 ug/ml): 6.04%
- cytotoxicity at 12.5 µg/mL (HepG-2; HepG-2, 12.5 ug/ml, read-out: Toxicity %): 94%
- viability at 25 µg/mL (HepG-2; HepG-2, 25 ug/ml): 5.71%
- cytotoxicity at 25 µg/mL (HepG-2; HepG-2, 25 ug/ml, read-out: Toxicity %): 94.3%
- IC50 (HepG-2; MTT, HepG-2, read-out: Cytotoxicity against cancer cells IC50 HepG-2): 187.1 ± 1.7 nM
- Activity % (EGFR; HepG2): 16.297%
- Inhibition % (EGFR; HepG2): 83.703%
- Activity % (EGFR; K-562): 21.954%
- Inhibition % (EGFR; K-562): 78.046%
- Activity % (EGFR; MCF7): 19.563%
- Inhibition % (EGFR; MCF7): 80.437%
- fold increase in BAX expression level (BAX; HepG-2, vs control): 6 fold
- BAX expression level (BAX; HepG-2, control 0.44): 2.65 fold change
- Gene expression (fold change) BAX (BAX; HepG-2, control 0.4448): 2.6533 ± 0.40 fold change
- Caspase-3 ± SE (caspase-3): 0.98 ± 0.04 ng/mL
- Caspase-3 ± SE (caspase-3; listed as N1): 0.98 ng/mL
- caspase-3 expression level, fold increase (caspase-3; HepG-2, vs control cells): 2.1 fold
- viability at 0.195 µmol (MCF-7 [1]; MCF-7, 0.195 umol): 56.6%
- cytotoxicity at 0.195 µmol (MCF-7 [1]; MCF-7, 0.195 umol, read-out: Toxicity %): 43.4%
- viability at 0.391 µmol (MCF-7 [1]; MCF-7, 0.391 umol): 41.8%
- cytotoxicity at 0.391 µmol (MCF-7 [1]; MCF-7, 0.391 umol, read-out: Toxicity %): 58.2%
- viability at 0.781 µmol (MCF-7 [1]; MCF-7, 0.781 umol): 27.6%
- cytotoxicity at 0.781 µmol (MCF-7 [1]; MCF-7, 0.781 umol, read-out: Toxicity %): 72.4%
- viability at 1.563 µmol (MCF-7 [1]; MCF-7, 1.563 umol): 13.5%
- cytotoxicity at 1.563 µmol (MCF-7 [1]; MCF-7, 1.563 umol, read-out: Toxicity %): 86.5%
- viability at 3.125 µmol (MCF-7 [1]; MCF-7, 3.125 umol): 9.94%
- cytotoxicity at 3.125 µmol (MCF-7 [1]; MCF-7, 3.125 umol, read-out: Toxicity %): 90.1%
- viability at 6.25 µmol (MCF-7 [1]; MCF-7, 6.25 umol): 8.66%
- cytotoxicity at 6.25 µmol (MCF-7 [1]; MCF-7, 6.25 umol, read-out: Toxicity %): 91.3%
- viability at 12.5 µmol (MCF-7 [1]; MCF-7, 12.5 umol): 6.99%
- cytotoxicity at 12.5 µmol (MCF-7 [1]; MCF-7, 12.5 umol, read-out: Toxicity %): 93%
- viability at 25 µmol (MCF-7 [1]; MCF-7, 25 umol): 6.42%
- cytotoxicity at 25 µmol (MCF-7 [1]; MCF-7, 25 umol, read-out: Toxicity %): 93.6%
- IC50 (MCF-7 [1]; MTT, MCF-7, read-out: Cytotoxicity against cancer cells IC50 MCF-7): 282.4 ± 1.4 nM
- viability at 0.195 µmol (K-562; K-562, 0.195 umol): 66.6%
- cytotoxicity at 0.195 µmol (K-562; K-562, 0.195 umol, read-out: Toxicity %): 33.4%
- viability at 0.391 µmol (K-562; K-562, 0.391 umol): 49.6%
- cytotoxicity at 0.391 µmol (K-562; K-562, 0.391 umol, read-out: Toxicity %): 50.4%
- viability at 0.781 µmol (K-562; K-562, 0.781 umol): 30.8%
- cytotoxicity at 0.781 µmol (K-562; K-562, 0.781 umol, read-out: Toxicity %): 69.2%
- viability at 1.563 µmol (K-562; K-562, 1.563 umol): 16.5%
- cytotoxicity at 1.563 µmol (K-562; K-562, 1.563 umol, read-out: Toxicity %): 83.5%
- viability at 3.125 µmol (K-562; K-562, 3.125 umol): 8.91%
- cytotoxicity at 3.125 µmol (K-562; K-562, 3.125 umol, read-out: Toxicity %): 91.1%
- viability at 6.25 µmol (K-562; K-562, 6.25 umol): 8.78%
- cytotoxicity at 6.25 µmol (K-562; K-562, 6.25 umol, read-out: Toxicity %): 91.2%
- viability at 12.5 µmol (K-562; K-562, 12.5 umol): 7.76%
- cytotoxicity at 12.5 µmol (K-562; K-562, 12.5 umol, read-out: Toxicity %): 92.2%
- viability at 25 µmol (K-562; K-562, 25 umol): 7.02%
- cytotoxicity at 25 µmol (K-562; K-562, 25 umol, read-out: Toxicity %): 93%
- IC50 (K-562; MTT, K-562, read-out: Cytotoxicity against cancer cells IC50 K-562): 385.8 ± 3.2 nM
- fold reduction in Bcl-2 expression level (Bcl-2; HepG-2, vs control): 2.8 fold
- Bcl-2 expression level (Bcl-2; HepG-2, control 3.49): 1.23 fold change
- Gene expression (fold change) Bcl-2 (Bcl-2; HepG-2, control 3.4983): 1.2368 ± 0.30 fold change
- IL-6R ± SE (IL-6R; HepG-2, at IC50 concentrations): 26.0 ± 0.97 ng/L
- IL-6 ±SE (IL-6R; raw data, HepG2): 14.73 ng/L
- Gene expression (fold change) BAX/Bcl-2 ratio (BAX/Bcl-2; control 0.1260): 2.1544 ± 0.96
- BAX/Bcl-2 ratio (BAX/Bcl-2; control […]): 2.15

SMILES: O=C(Nc1ccc(Oc2nc(Cl)nc3ccccc23)cc1)c1cccnc1 [VIII]
- IC50 HepG2 (HepG2): 24.10 µg/mL (≈ 64 µM)
- IC50 MCF-7 (MCF-7 [2]): 33.40 µg/mL (≈ 88.6 µM)
- IC50 PC3 (PC3): 40.90 µg/mL (≈ 109 µM)
- IC50 (VEGFR-2 kinase; read-out: VEGFR-2 inhibition IC50): 60 nM

SMILES: O=C(CSc1nc2ccc([N+](=O)[O-])cc2c(=O)n1-c1ccccc1)NNC(=O)c1ccccc1 [VII]
- IC50 HepG2 (HepG2): 17.23 µg/mL (≈ 36.2 µM)
- IC50 (WI-38): 146000 nM
- IC50 MCF-7 (MCF-7 [2]): 30.85 µg/mL (≈ 64.9 µM)
- IC50 PC3 (PC3): 26.10 µg/mL (≈ 54.9 µM)
- IC50 (VEGFR-2 kinase; read-out: IC50 against VEGFR-2 kinase): 4600 ± 60 nM
